Test results reported in the NIST ThermoML archive (doi:10.1021/je700523b).

Test: wn = mass fraction of the nth substance listed
Details: 298.15 K; for surface tension liquid-gas: Pendant drop shape; for mass density / viscosity: 101 kPa, Liquid; for mass density: Vibrating tube method

CCOS(=O)(=O)[O-].CCn1cc[n+](C)c1 [1-ethyl-3-methylimidazolium ethyl sulfate] + O
Details	mass density [kg/m3]	surface tension liquid-gas [mN/m]	viscosity [mPa·s]
w2 = 0.000475	1236.26	47	91.85
w2 = 0.00754	1234.51	47.23	83.6
w2 = 0.0144	1233.93	48.01	70.21
w2 = 0.02531	1231.35	48.08	65.61
w2 = 0.03047	1230	48.09	55.78
w2 = 0.03849	1227.15	47.93	41.85
w2 = 0.04185	1228.01	48.14	33.3
w2 = 0.05643	1226.3	47.95	30.63
w2 = 0.06937	1222.45	48.25	24.8
w2 = 0.07519	1219.51	48.97	23.63
w2 = 0.09292	1215.44	49.35	17.41
w2 = 0.09493	1214.98	50.11	14.73
